Experiment in all cases: cAMP activity assay in assay medium (assay 1)
Holding throughout (type): cell-based

In assay [1] the target is T1, Human GlucR (Homo sapiens, UniProt P47871).
T1 construct: expressed in transfected cells
The note with it: assay medium; Table 4; read-out: hGlucR EC50. From the text:
(§1) Biological Activity of Peptides in Cell-Based cAMP Activity Assay (Assay 1):
(§2) All sample dilutions were made in duplicate.

The target in assay [2] is T2, Human GIPr (Homo sapiens, UniProt P48546).
T2 construct: expressed in transfected cells
T2 sequence (P48546 22-466): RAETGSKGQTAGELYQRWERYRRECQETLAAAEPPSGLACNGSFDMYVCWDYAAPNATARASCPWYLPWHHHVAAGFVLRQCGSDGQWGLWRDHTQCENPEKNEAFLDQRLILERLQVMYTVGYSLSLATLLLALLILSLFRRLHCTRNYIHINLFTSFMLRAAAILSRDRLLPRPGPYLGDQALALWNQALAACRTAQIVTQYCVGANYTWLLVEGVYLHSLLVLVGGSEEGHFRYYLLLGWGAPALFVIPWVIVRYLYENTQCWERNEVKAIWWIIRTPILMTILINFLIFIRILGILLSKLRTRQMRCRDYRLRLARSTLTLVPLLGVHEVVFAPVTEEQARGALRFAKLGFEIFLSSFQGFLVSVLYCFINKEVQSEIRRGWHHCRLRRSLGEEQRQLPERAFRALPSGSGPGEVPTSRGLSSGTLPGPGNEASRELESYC
The conditions noted are these: assay medium; Table 4; read-out: hGIPR EC50.
Excerpt: as §1, §2

Assay [3] addresses Human GLP1R (Homo sapiens, UniProt P43220). Also on record: expressed in transfected cells. The conditions noted are these: assay medium; Table 4; read-out: hGLP1R EC50.
Excerpt: as §1, §2

Values joined by “and” are separate entries in the source; they are usually repeats but may differ in a detail not shown here. Identical values can stand only once. Numbered stars: 1 amine (or outer) side, 2 acyl side, 3 side chain; on linkers, the order of the positions; unused ones are H or OH. Side chains are listed from the residue outwards. Peptide text beside a SMILES is read from it. * marks the point of attachment. γGlu = O=C(O)[C@H](CCC(=O)[*:2])N[*:1]; Palmitoyl = CCCCCCCCCCCCCCCC(=O)*; Ahx = NCCCCCC(=O)O

The values that follow come from US20200354426A1 (MEDIMMUNE LIMITED, priority 2016, published 2020).

T1 sequence (P47871 26-477): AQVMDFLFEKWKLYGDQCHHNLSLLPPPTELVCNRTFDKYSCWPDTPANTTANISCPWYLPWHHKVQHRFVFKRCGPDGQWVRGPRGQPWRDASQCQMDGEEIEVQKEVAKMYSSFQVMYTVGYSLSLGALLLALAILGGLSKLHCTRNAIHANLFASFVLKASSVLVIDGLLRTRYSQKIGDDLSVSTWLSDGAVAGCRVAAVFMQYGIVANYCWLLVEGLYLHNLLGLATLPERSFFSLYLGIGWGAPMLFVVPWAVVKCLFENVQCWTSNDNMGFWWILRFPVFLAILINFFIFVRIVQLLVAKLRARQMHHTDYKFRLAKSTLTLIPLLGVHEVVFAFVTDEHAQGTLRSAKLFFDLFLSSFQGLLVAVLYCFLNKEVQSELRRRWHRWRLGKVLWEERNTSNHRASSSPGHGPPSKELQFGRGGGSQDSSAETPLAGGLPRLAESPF
Chain of Human GLP1R (P43220 24-463): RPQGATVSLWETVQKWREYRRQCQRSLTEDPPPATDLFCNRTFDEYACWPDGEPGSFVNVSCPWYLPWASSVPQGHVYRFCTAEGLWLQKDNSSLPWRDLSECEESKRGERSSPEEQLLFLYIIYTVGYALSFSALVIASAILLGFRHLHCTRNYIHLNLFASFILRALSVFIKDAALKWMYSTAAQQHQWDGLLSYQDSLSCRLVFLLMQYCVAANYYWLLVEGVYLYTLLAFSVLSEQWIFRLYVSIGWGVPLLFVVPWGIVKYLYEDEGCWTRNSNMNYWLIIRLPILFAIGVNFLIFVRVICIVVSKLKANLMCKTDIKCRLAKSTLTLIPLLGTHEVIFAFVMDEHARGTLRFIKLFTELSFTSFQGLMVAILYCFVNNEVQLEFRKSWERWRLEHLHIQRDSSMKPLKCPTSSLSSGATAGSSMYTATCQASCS

Regarding `CCCCCCCCCCCCCCCC(=O)N[C@@H](CCC(=O)NCCCC[C@H](NC(=O)[C@H](CO)NC(=O)[C@H](CC(=O)O)NC(=O)[C@H](CC(C)C)NC(=O)[C@H](Cc1ccc(O)cc1)NC(=O)[C@H](CCCCN)NC(=O)[C@H](CO)NC(=O)[C@H](Cc1ccc(O)cc1)NC(=O)[C@H](CC(=O)O)NC(=O)[C@H](CO)NC(=O)[C@@H](NC(=O)[C@H](Cc1ccccc1)NC(=O)[C@@H](NC(=O)CNC(=O)[C@H](CCC(N)=O)NC(=O)C(C)(C)NC(=O)[C@@H](N)Cc1c[nH]cn1)[C@@H](C)O)[C@@H](C)O)C(=O)N[C@@H](CCCNC(=N)N)C(=O)N[C@@H](C)C(=O)N[C@@H](CCC(N)=O)C(=O)N[C@@H](CC(=O)O)C(=O)N[C@@H](Cc1ccccc1)C(=O)N[C@H](C(=O)N[C@@H](CCC(N)=O)C(=O)N[C@@H](Cc1c[nH]c2ccccc12)C(=O)N[C@@H](CC(C)C)C(=O)N[C@H](C(=O)N[C@@H](C)C(=O)NCC(=O)NCC(N)=O)C(C)C)C(C)C)C(=O)O` [g384], the values for the EC50 in assay [1], in assay [2] and in assay [3] were 0.0429 nM, 17 nM and 0.0272 nM, respectively.
`CCCCCCCCCCCCCCCC(=O)N[C@@H](CCC(=O)NCCCC[C@H](NC(=O)[C@H](CO)NC(=O)[C@H](CC(=O)O)NC(=O)[C@H](CC(C)C)NC(=O)[C@H](Cc1ccc(O)cc1)NC(=O)[C@H](CCCCN)NC(=O)[C@H](CO)NC(=O)[C@H](Cc1ccc(O)cc1)NC(=O)[C@H](CC(=O)O)NC(=O)[C@H](CO)NC(=O)[C@@H](NC(=O)[C@H](Cc1ccccc1)NC(=O)[C@@H](NC(=O)CNC(=O)[C@H](CCC(N)=O)NC(=O)CNC(=O)[C@@H](N)Cc1c[nH]cn1)[C@@H](C)O)[C@@H](C)O)C(=O)N[C@@H](CCCNC(=N)N)C(=O)N[C@@H](C)C(=O)N[C@@H](CCC(N)=O)C(=O)N[C@@H](CC(=O)O)C(=O)N[C@@H](Cc1ccccc1)C(=O)N[C@H](C(=O)N[C@@H](CCC(N)=O)C(=O)N[C@@H](Cc1c[nH]c2ccccc12)C(=O)N[C@@H](CC(C)C)C(=O)N[C@@H](CCC(=O)O)C(=O)N[C@@H](C)C(=O)NCC(=O)NCC(N)=O)C(C)C)C(=O)O` [g512]: the EC50 (as a rule, the midpoint of the concentration-response curve) in assay [1] worked out at 0.0606 nM; in assay [2] it was 407 nM; in assay [3] it was 0.098 nM.
For `CCCCCCCCCCCCCCCC(=O)N[C@@H](CCC(=O)NCCCC[C@H](NC(=O)[C@H](CO)NC(=O)[C@H](CC(=O)O)NC(=O)[C@H](CC(C)C)NC(=O)[C@H](Cc1ccc(O)cc1)NC(=O)[C@H](CCCCN)NC(=O)[C@H](CO)NC(=O)[C@H](Cc1ccc(O)cc1)NC(=O)[C@H](CC(=O)O)NC(=O)[C@H](CO)NC(=O)[C@@H](NC(=O)[C@H](Cc1ccccc1)NC(=O)[C@@H](NC(=O)CNC(=O)[C@H](CCC(=O)O)NC(=O)[C@H](CO)NC(=O)[C@@H](N)Cc1c[nH]cn1)[C@@H](C)O)[C@@H](C)O)C(=O)N[C@@H](CCCNC(=N)N)C(=O)N[C@@H](C)C(=O)N[C@@H](CCC(N)=O)C(=O)N[C@@H](CC(=O)O)C(=O)N[C@@H](Cc1ccccc1)C(=O)N[C@H](C(=O)N[C@@H](CCC(N)=O)C(=O)N[C@@H](Cc1c[nH]c2ccccc12)C(=O)N[C@@H](CC(C)C)C(=O)N[C@@H](CCC(=O)O)C(=O)N[C@@H](C)C(=O)NCC(=O)NCC(N)=O)C(C)C)C(=O)O` [g513] (H-HSEGTFTSDYSKYLDSK([γGlu-Palmitoyl])RAQDFVQWLEAGG-NH2; N-terminus assumed), in that order: 0.723 nM, 298 nM and 0.175 nM.
For `CCCCCCCCCCCCCCCC(=O)N[C@@H](CCC(=O)NCCCC[C@H](NC(=O)[C@H](CO)NC(=O)[C@H](CC(=O)O)NC(=O)[C@H](CC(C)C)NC(=O)[C@H](Cc1ccc(O)cc1)NC(=O)[C@H](CCCCN)NC(=O)[C@H](CO)NC(=O)[C@H](Cc1ccc(O)cc1)NC(=O)[C@H](CC(=O)O)NC(=O)[C@H](CO)NC(=O)[C@@H](NC(=O)[C@H](Cc1ccccc1)NC(=O)[C@@H](NC(=O)CNC(=O)[C@H](CCC(N)=O)NC(=O)CNC(=O)[C@@H](N)Cc1c[nH]cn1)[C@@H](C)O)[C@@H](C)O)C(=O)N[C@@H](CCCNC(=N)N)C(=O)N[C@@H](C)C(=O)N[C@@H](CCC(N)=O)C(=O)N[C@@H](CC(=O)O)C(=O)N[C@@H](Cc1ccccc1)C(=O)N[C@H](C(=O)N[C@@H](CCC(N)=O)C(=O)N[C@@H](Cc1c[nH]c2ccccc12)C(=O)N[C@@H](CC(C)C)C(=O)N[C@@H](CCC(=O)O)C(=O)N[C@@H](CCCNC(=N)N)C(=O)NCC(=O)NCC(N)=O)C(C)C)C(=O)O` [g588], in that order: 0.0723 nM, 98 nM and 0.11 nM.
Turning to `CCCCCCCCCCCCCCCC(=O)N[C@@H](CCC(=O)NCCCC[C@H](NC(=O)[C@H](CO)NC(=O)[C@H](CC(=O)O)NC(=O)[C@H](CC(C)C)NC(=O)[C@H](Cc1ccc(O)cc1)NC(=O)[C@H](CCCCN)NC(=O)[C@H](CO)NC(=O)[C@H](Cc1ccc(O)cc1)NC(=O)[C@H](CC(=O)O)NC(=O)[C@H](CO)NC(=O)[C@@H](NC(=O)[C@H](Cc1ccccc1)NC(=O)[C@@H](NC(=O)CNC(=O)[C@H](CCC(N)=O)NC(=O)[C@H](CO)NC(=O)[C@@H](N)Cc1c[nH]cn1)[C@@H](C)O)[C@@H](C)O)C(=O)N[C@@H](CCCNC(=N)N)C(=O)N[C@@H](C)C(=O)N[C@@H](CCC(N)=O)C(=O)N[C@@H](CC(=O)O)C(=O)N[C@@H](Cc1ccccc1)C(=O)N[C@H](C(=O)N[C@@H](CCC(=O)O)C(=O)N[C@@H](Cc1c[nH]c2ccccc12)C(=O)N[C@@H](CC(C)C)C(=O)N[C@H](C(=O)N[C@@H](C)C(=O)NCC(=O)NCC(N)=O)C(C)C)C(C)C)C(=O)O` [g600] (H-HSQGTFTSDYSKYLDSK([γGlu-Palmitoyl])RAQDFVEWLVAGG-NH2; N-terminus assumed), the concentration for a half-maximal effect (EC50) in assay [1] is 0.00547 nM; in assay [2], 124 nM and 82.8 nM; in assay [3], 0.0666 nM.
For the molecule `CCCCCCCCCCCCCCCC(=O)NCCCCCC(=O)NCCCC[C@H](NC(=O)[C@H](CO)NC(=O)[C@H](CC(=O)O)NC(=O)[C@H](CC(C)C)NC(=O)[C@H](Cc1ccc(O)cc1)NC(=O)[C@H](CCC(=O)O)NC(=O)[C@H](CO)NC(=O)[C@H](Cc1ccc(O)cc1)NC(=O)[C@H](CC(=O)O)NC(=O)[C@H](CO)NC(=O)[C@@H](NC(=O)[C@H](Cc1ccccc1)NC(=O)[C@@H](NC(=O)CNC(=O)[C@H](CCC(N)=O)NC(=O)[C@H](CO)NC(=O)[C@@H](N)Cc1c[nH]cn1)[C@@H](C)O)[C@@H](C)O)C(=O)N[C@@H](CCCNC(=N)N)C(=O)N[C@@H](C)C(=O)N[C@@H](CCC(N)=O)C(=O)N[C@@H](CC(=O)O)C(=O)N[C@@H](Cc1ccccc1)C(=O)N[C@H](C(=O)N[C@@H](CCC(N)=O)C(=O)N[C@@H](Cc1c[nH]c2ccccc12)C(=O)N[C@@H](CC(C)C)C(=O)N[C@@H](CCC(=O)O)C(=O)N[C@@H](CCCNC(=N)N)C(=O)NCC(=O)NCC(N)=O)C(C)C` [g614] (H-HSQGTFTSDYSEYLDSK([Ahx-Palmitoyl])RAQDFVQWLERGG-NH2; N-terminus assumed), the EC50 in assay [1] worked out at 0.00365 nM; in assay [2], 99.3 nM; in assay [3] it was 0.00931 nM.
In the same order, the values of `CCCCCCCCCCCCCCCC(=O)N[C@@H](CCC(=O)NCCCC[C@H](NC(=O)[C@H](CO)NC(=O)[C@H](CC(=O)O)NC(=O)[C@H](CC(C)C)NC(=O)[C@H](Cc1ccc(O)cc1)NC(=O)[C@H](CCCCN)NC(=O)[C@H](CO)NC(=O)[C@H](Cc1ccc(O)cc1)NC(=O)[C@H](CC(=O)O)NC(=O)[C@H](CO)NC(=O)[C@@H](NC(=O)[C@H](Cc1ccccc1)NC(=O)[C@@H](NC(=O)CNC(=O)[C@H](CCC(=O)O)NC(=O)[C@H](CO)NC(=O)[C@@H](N)Cc1c[nH]cn1)[C@@H](C)O)[C@@H](C)O)C(=O)N[C@@H](CCCNC(=N)N)C(=O)N[C@@H](C)C(=O)N[C@@H](CCC(=O)O)C(=O)N[C@@H](CC(=O)O)C(=O)N[C@@H](Cc1ccccc1)C(=O)N[C@H](C(=O)N[C@@H](CCC(=O)O)C(=O)N[C@@H](Cc1c[nH]c2ccccc12)C(=O)N[C@@H](CC(C)C)C(=O)N[C@H](C(=O)N[C@@H](C)C(=O)NCC(=O)NCC(N)=O)C(C)C)C(C)C)C(=O)O` [g639] (H-HSEGTFTSDYSKYLDSK([γGlu-Palmitoyl])RAEDFVEWLVAGG-NH2; N-terminus assumed) are 82.1 nM, 82.1 nM and 0.244 nM.
Consider `CCCCCCCCCCCCCCCC(=O)N[C@@H](CCC(=O)NCCCC[C@H](NC(=O)[C@H](CO)NC(=O)[C@H](CC(=O)O)NC(=O)[C@H](CC(C)C)NC(=O)[C@H](Cc1ccc(O)cc1)NC(=O)[C@H](CCCCN)NC(=O)[C@H](CO)NC(=O)[C@H](Cc1ccc(O)cc1)NC(=O)[C@H](CC(=O)O)NC(=O)[C@H](CO)NC(=O)[C@@H](NC(=O)[C@H](Cc1ccccc1)NC(=O)[C@@H](NC(=O)CNC(=O)[C@H](CCC(N)=O)NC(=O)CNC(=O)[C@@H](N)Cc1c[nH]cn1)[C@@H](C)O)[C@@H](C)O)C(=O)N[C@@H](CCCNC(=N)N)C(=O)N[C@@H](C)C(=O)N[C@@H](CCCNC(=N)N)C(=O)N[C@@H](CC(=O)O)C(=O)N[C@@H](Cc1ccccc1)C(=O)N[C@H](C(=O)N[C@@H](CCC(=O)O)C(=O)N[C@@H](Cc1c[nH]c2ccccc12)C(=O)N[C@@H](CC(C)C)C(=O)N[C@H](C(=O)N[C@@H](C)C(=O)NCC(=O)NCC(N)=O)C(C)C)C(C)C)C(=O)O` [g660] (H-HGQGTFTSDYSKYLDSK([γGlu-Palmitoyl])RARDFVEWLVAGG-NH2; N-terminus assumed), for which the half-maximal effective concentration (EC50) in assay [1] came out at 1.52 nM; in assay [2], 332 nM; in assay [3] it was 1.06 nM.
